Source: ChEMBL document CHEMBL3044899, “Effect of chloro and fluoro groups on the antimicrobial activity of 2,5-disubstituted 4-thiazolidinones: a comparative study” (2012)
Calls of active or inactive are those of the source. The rule behind the calls is not given here.

Key:
Staphylococcus aureus [1] = experiment: Antibacterial activity against Staphylococcus aureus MTCC 96 at 100 ug/ml by cup-plate method; assay type: functional; conditions: read-out: DIZ
Pseudomonas aeruginosa [2] = experiment: Antibacterial activity against Pseudomonas aeruginosa MTCC 2453 by cup-plate method; assay type: functional, organism-based
Staphylococcus aureus [3] = experiment: Antibacterial activity against Staphylococcus aureus MTCC 96 at 300 ug/ml by cup-plate method; assay type: functional; conditions: read-out: DIZ
Escherichia coli [4] = experiment: Antibacterial activity against Escherichia coli MTCC 739 at 50 ug/ml by cup-plate method; assay type: functional; conditions: read-out: DIZ
Escherichia coli [5] = experiment: Antibacterial activity against Escherichia coli MTCC 739 at 200 ug/ml by cup-plate method; assay type: functional; conditions: read-out: DIZ
Escherichia coli [6] = experiment: Antibacterial activity against Escherichia coli MTCC 739 at 300 ug/ml by cup-plate method; assay type: functional; conditions: read-out: DIZ
Bacillus subtilis [7] = experiment: Antibacterial activity against Bacillus subtilis MTCC 121 at 100 ug/ml by cup plate method; assay type: functional; conditions: read-out: DIZ
Pseudomonas aeruginosa [8] = experiment: Antibacterial activity against Pseudomonas aeruginosa MTCC 2453 at 200 ug/ml by cup-plate method; assay type: functional; conditions: read-out: DIZ
Pseudomonas aeruginosa [9] = experiment: Antibacterial activity against Pseudomonas aeruginosa MTCC 2453 at 100 ug/ml by cup-plate method; assay type: functional; conditions: read-out: DIZ
Pseudomonas aeruginosa [10] = experiment: Antibacterial activity against Pseudomonas aeruginosa MTCC 2453 at 300 ug/ml by cup-plate method; assay type: functional; conditions: read-out: DIZ
Escherichia coli [11] = experiment: Antibacterial activity against Escherichia coli MTCC 739 at 100 ug/ml by cup-plate method; assay type: functional; conditions: read-out: DIZ
Staphylococcus aureus [12] = experiment: Antibacterial activity against Staphylococcus aureus MTCC 96 at 50 ug/ml by cup-plate method; assay type: functional; conditions: read-out: DIZ
Candida albicans = experiment: Antifungal activity against Candida albicans MTCC 227 at 50 to 300 ug/ml by cup-plate method; assay type: functional, organism-based
Escherichia coli [13] = experiment: Antibacterial activity against Escherichia coli MTCC 739 by cup-plate method; assay type: functional, organism-based
Bacillus subtilis [14] = experiment: Antibacterial activity against Bacillus subtilis MTCC 121 at 300 ug/ml by cup plate method; assay type: functional; conditions: read-out: DIZ
Bacillus subtilis [15] = experiment: Antibacterial activity against Bacillus subtilis MTCC 121 at 50 ug/ml by cup plate method; assay type: functional; conditions: read-out: DIZ
Bacillus subtilis [16] = experiment: Antibacterial activity against Bacillus subtilis MTCC 121 at 200 ug/ml by cup plate method; assay type: functional; conditions: read-out: DIZ
Staphylococcus aureus [17] = experiment: Antibacterial activity against Staphylococcus aureus MTCC 96 by cup-plate method; assay type: functional, organism-based
Bacillus subtilis [18] = experiment: Antibacterial activity against Bacillus subtilis MTCC 121 by cup plate method; assay type: functional, organism-based
Staphylococcus aureus [19] = experiment: Antibacterial activity against Staphylococcus aureus MTCC 96 at 200 ug/ml by cup-plate method; assay type: functional; conditions: read-out: DIZ
Pseudomonas aeruginosa [20] = experiment: Antibacterial activity against Pseudomonas aeruginosa MTCC 2453 at 50 ug/ml by cup-plate method; assay type: functional; conditions: read-out: DIZ

Row | Compound | zone of inhibition at 100 µg/mL (Staphylococcus aureus [1]) [mm] | Activity (Pseudomonas aeruginosa [2]) | zone of inhibition at 300 µg/mL (Staphylococcus aureus [3]) [mm] | zone of inhibition at 50 µg/mL (Escherichia coli [4]) [mm] | zone of inhibition at 200 µg/mL (Escherichia coli [5]) [mm] | zone of inhibition at 300 µg/mL (Escherichia coli [6]) [mm] | zone of inhibition at 100 µg/mL (Bacillus subtilis [7]) [mm] | zone of inhibition at 200 µg/mL (Pseudomonas aeruginosa [8]) [mm] | zone of inhibition at 100 µg/mL (Pseudomonas aeruginosa [9]) [mm] | zone of inhibition at 300 µg/mL (Pseudomonas aeruginosa [10]) [mm] | zone of inhibition at 100 µg/mL (Escherichia coli [11]) [mm] | zone of inhibition at 50 µg/mL (Staphylococcus aureus [12]) [mm] | Activity (Candida albicans) | Activity (Escherichia coli [13]) | zone of inhibition at 300 µg/mL (Bacillus subtilis [14]) [mm] | zone of inhibition at 50 µg/mL (Bacillus subtilis [15]) [mm] | zone of inhibition at 200 µg/mL (Bacillus subtilis [16]) [mm] | Activity (Staphylococcus aureus [17]) | Activity (Bacillus subtilis [18]) | zone of inhibition at 200 µg/mL (Staphylococcus aureus [19]) [mm] | other results
1 | O=C1N/C(=N\c2ccc(Cl)cc2)S/C1=C\c1ccccc1[N+](=O)[O-] | 9 | Dose-dependent effect | 10 | 6 | 9 | 9 | 9 | 8 | 8 | 9 | 8 | 8 | inactive | Dose-dependent effect | 11 | 8 | 10 | Dose-dependent effect | Dose-dependent effect | 10 | zone of inhibition at 50 µg/mL (Pseudomonas aeruginosa [20]): 7 mm
2 | O=C1N/C(=N\c2ccc(F)c(Cl)c2)S/C1=C\c1ccc(Cl)cc1 | 12 | Dose-dependent effect | 14 | 9 | 12 | 12 | 10 | 11 | 9 | 12 | 12 | 10 | inactive | Dose-dependent effect | 13 | 8 | 11 | Dose-dependent effect | Dose-dependent effect | 12 | zone of inhibition at 50 µg/mL (Pseudomonas aeruginosa [20]): 8 mm
3 | O=C1N/C(=N\c2ccc(Cl)cc2)S/C1=C\c1ccc(Cl)cc1 | 8 | Dose-dependent effect | 10 | 8 | 7 | 9 | 8 | 8 | 7 | 10 | 8 | 6 | inactive | Dose-dependent effect | 10 | 7 | 8 | Dose-dependent effect | Dose-dependent effect | 9 | zone of inhibition at 50 µg/mL (Pseudomonas aeruginosa [20]): 6 mm
4 | O=C1N/C(=N\c2cccc(Cl)c2)S/C1=C\c1cccc([N+](=O)[O-])c1 | 9 | Dose-dependent effect | 10 | 7 | 8 | 8 | 9 | 9 | 8 | 9 | 7 | 8 | inactive | Dose-dependent effect | 10 | 8 | 9 | Dose-dependent effect | Dose-dependent effect | 9 | zone of inhibition at 50 µg/mL (Pseudomonas aeruginosa [20]): 8 mm
5 | O=C1N/C(=N\c2ccc(Cl)cc2)S/C1=C\c1ccccc1Cl | 8 | Dose-dependent effect | 10 | 9 | 10 | 9 | 8 | 9 | 9 | 9 | 9 | 8 | inactive | Dose-dependent effect | 10 | 8 | 9 | Dose-dependent effect | Dose-dependent effect | 9 | zone of inhibition at 50 µg/mL (Pseudomonas aeruginosa [20]): 9 mm
6 | O=C1N/C(=N\c2ccc(F)c(Cl)c2)S/C1=C\c1ccccc1[N+](=O)[O-] | 12 | Dose-dependent effect | 14 | 8 | 11 | 12 | 12 | 10 | 9 | 11 | 9 | 10 | inactive | Dose-dependent effect | 13 | 10 | 13 | Dose-dependent effect | Dose-dependent effect | 13 | zone of inhibition at 50 µg/mL (Pseudomonas aeruginosa [20]): 8 mm
7 | O=C1N/C(=N\c2cccc(Cl)c2)S/C1=C\c1ccccc1[N+](=O)[O-] | 9 | Dose-dependent effect | 10 | 6 | 9 | 9 | 9 | 9 | 8 | 9 | 8 | 8 | inactive | Dose-dependent effect | 10 | 9 | 9 | Dose-dependent effect | Dose-dependent effect | 10 | zone of inhibition at 50 µg/mL (Pseudomonas aeruginosa [20]): 7 mm
8 | COc1cc(/C=C2\S/C(=N/c3ccc(F)c(Cl)c3)NC2=O)ccc1O | 8 | Dose-dependent effect | 11 | 7 | 8 | 9 | 8 | 10 | 9 | 10 | 8 | 7 | inactive | Dose-dependent effect | 10 | 7 | 8 | Dose-dependent effect | Dose-dependent effect | 9 | zone of inhibition at 50 µg/mL (Pseudomonas aeruginosa [20]): 7 mm
